Assay: water solubility
Assay type: physicochemical
Details: in water (substance/water)

solubility: > 500 mg/mL
Compound: NCCCCCC(=O)O [6-aminocaproic acid]
